Measured values taken from US20150018305A1, “SIRTUIN INDUCER, TISSUE REPAIRING AGENT, HEPATOCYTE GROWTH FACTOR INDUCER, TISSUE HOMEOSTASIS MAINTENANCE AGENT, AND TLR4 AGONIST, HAVING HYALURONIC ACID FRAGMENT AS ACTIVE INGREDIENT” (HYALURONAN RESEARCH INSTITUTE, INC., priority 2012, published 2015).

Experiments:
[1] = tested on: human large intestine epithelial cells (HT29 cells); assay: Hydrogen peroxide induced aging of human large intestine epithelial cells, MTS assay (Test Examples 16-18); format: cell-based; conditions: for suppression of cellular aging (MTS value, OD 490 nm): hydrogen peroxide 10 μM 15 min
Protocol: Human large intestine epithelial cells (HT29 cells) were experienced cellular aging (decline in mitochondrial activity due to injury, or a drop in the MTS value once cell death occurs) due to stimulation by the hydrogen peroxide when treated with hydrogen peroxide, and it was investigated whether this process is affected by treatment with the hyaluronic acid fragment. Specifically, the following test was performed.
Using a DMEM culture medium (made by Wako Pure Chemical Industries, Ltd.), human large intestine epithelial cells (HT29 cells) were cultured by usual methods at 37° C. under 5% CO2. Hydrogen peroxide was added to the culture medium to a final concentration of 10 μM to bring about stimulation for a 15-minute period, and the culture broth was then transferred to DMEM culture medium containing no hyaluronic acid fragments; to DMEM culture medium containing hyaluronic acid fragment (4mer) in a final concentration of 100 ng/ml; or to DMEM culture medium containing the hyaluronic acid fragment (4mer) plus TLR4/MD2 in a final concentration of 10 μg/ml, and cultured for 3 hours.
After 3 hours had passed, an MTS assay was performed. On the basis of the action, in which MTS is converted to formazan by dehydrogenation in the mitochondria of the cell, OD 490 nm was measured to measure mitochondrial function.
Using hyaluronic acid fragment (4mer), hyaluronic acid fragment (L4mer) and hyaluronic acid fragment (L3mer) as test substances, tests similar to those of Test Example 16 were performed, except that the culture time following transfer to the culture medium containing the test substance was one hour.
Tests similar to those of Test Example 16 were performed, except for using hyaluronic acid fragment (L4mer), and hyaluronic acid fragment (L3mer) as test substances.

[2] = tested on: sirtuin enzymatic activity (sirt1 enzymatic activity); assay: Sirtuin enzymatic activity in cell solution of human epidermal keratinocytes, CycLex SIRT1/Sir2 Deacetylase Fluorometric Assay Kit (Test Example 2); format: cell-based; conditions: 10 ng/ml final concentration; cell crude extract
Protocol: Human epidermal keratinocytes were treated in the same manner as in Test Example 1, except that the final concentration of the hyaluronic acid fragment was 10 ng/ml, the size thereof being four sugar units (4mer), six sugar units (6mer), or 10 sugar units (10mer), while measuring the sirtuin enzymatic activity (sirt1 enzymatic activity) in the cell solution thereof. For purposes of comparison, 10 kDa or 900 kDa hyaluronic acid, and resveratrol, a known sirtuin activator, were likewise tested at 10 ng/ml final concentration. A human sirtuin recombinant protein (recombinant human sirt1) produced through genetic recombination techniques was used as a substance for verification of the measurement system. Sirtuin enzymatic activity in the cell crude extract was measured with the CycLex SIRT1/Sir2 Deacetylase Fluorometric Assay Kit (trade name of CycLex), following the protocol of the kit.

| SMILES | suppression of cellular aging (MTS value, OD 490 nm) ([1]; then 100 ng/ml for 3 hours) | suppression of cellular aging (MTS value, OD 490 nm) ([1]; then test substance for one hour) | suppression of cellular aging with TLR4/MD2 added (MTS) ([1]; hydrogen peroxide 10 μM, 100 ng/ml plus TLR4/MD2 10 μg/ml, 3 hours) | sirtuin enzymatic activity (sirt1 enzymatic activity) compared with negative control [2] |
| --- | --- | --- | --- | --- |
| CC(=O)NC1C(O[C@@H]2OC(C(=O)O)[C@@H](O[C@@H]3OC(CO)[C@@H](O)C(O[C@@H]4OC(C(=O)O)[C@@H](O)C(O)C4O)C3NC(C)=O)C(O)C2O)[C@H](O)C(CO)O[C@H]1OCCCN=[N+]=[N-] (stereo partly shown) [L4mer] | showed effect in suppressing cellular aging | showed effect in suppressing cellular aging | inhibited by the addition of TLR4/MD2 |  |
| Oc1ccc(C=Cc2cc(O)cc(O)c2)cc1 [resveratrol, reference compound] |  |  |  | No change was observed |
